Common to all, as to type: functional, organism-based
Assay [1] concerns Alternaria citri. Kind of assay: Antifungal activity against Alternaria citri CBS 192.81; VIAM MA1628 assessed as inhibition of spore germination by microdilution technique linked with digital image analysis. For orientation: Dilution methods test growth across graded concentrations, often in twofold steps.
Another assay relates to Pyricularia grisea. In words: Antifungal activity against Magnaporthe grisea VIAM MA1627 assessed as inhibition of spore germination by microdilution technique linked with digital image analysis.
The test system of the next assay is Fusarium avenaceum. In words: Antifungal activity against Fusarium avenaceum VIAM MA1512 assessed as inhibition of spore germination by microdilution technique linked with digital image analysis.
The test system of assay [2] is Alternaria citri. Kind of assay: Antifungal activity against Alternaria citri CBS 192.81; VIAM MA1628 assessed as inhibition of spore germination at 200 ug/ml by microdilution technique linked with digital image analysis.

≈ marks a conversion by molar mass, not a printed value. Calls of active or inactive are those of the source. The rule behind the calls is not given here.

Broadly, the EC50 is the concentration at which the effect is half-maximal. One may read the EC90 as the concentration needed for an effect of 90%. One may read the MIC as the lowest concentration found to suppress growth. Take `COC(=O)[C@H]1[C@@H](O)[C@@]2(O)c3c(OC)cc(OC)cc3O[C@@]2(c2ccc(OC)cc2)[C@@H]1c1ccccc1` [AGLAFOLIN]: in the assay with Alternaria citri [1], the EC50 was determined as 44 µg/mL (≈ 89.3 µM), the EC90 was determined as 171 µg/mL (≈ 347 µM) and the MIC was determined as 200 µg/mL (≈ 406 µM). For the same molecule, in the assay on Pyricularia grisea, the EC50 turned out to be 0.05 µg/mL (≈ 0.102 µM), the EC90 was 8 µg/mL (≈ 16.2 µM) and the MIC was 3 µg/mL (≈ 6.09 µM). Besides, in the assay on Fusarium avenaceum, the EC50 was determined as 1.6 µg/mL (≈ 3.25 µM), the EC90 was found to be 38 µg/mL (≈ 77.2 µM) and the MIC came out at 100 µg/mL (≈ 203 µM).
For `COc1ccc(C2C(=O)Oc3cc4c(c(OC)c32)OCO4)cc1` (configuration not stated) [AGLALACTONE], in the assay with Pyricularia grisea, the EC50 was above 200 µg/mL, the EC90 was above 200 µg/mL and the MIC was above 200 µg/mL.
Consider `COc1ccc([C@@]23Oc4cc5c(c(OC)c4[C@]2(O)[C@H](O)[C@H](C(=O)N(C)C)[C@H]3c2ccccc2)OCO5)cc1` [AGLAROXIN A], for which, in the assay on Pyricularia grisea, the EC50 is 1.4 µg/mL (≈ 2.69 µM), the EC90 is above 200 µg/mL and the MIC was determined as 100 µg/mL (≈ 192 µM).
For `CCCCNC(=O)n1c(NC(=O)OC)nc2ccccc21` [BENOMYL], in the assay with Alternaria citri [1], the EC50 was above 200 µg/mL, the EC90 was above 200 µg/mL and the MIC was above 200 µg/mL. Besides, in the assay with Pyricularia grisea, the EC90 was 84 µg/mL (≈ 289 µM) and the MIC was 200 µg/mL (≈ 689 µM). Moreover, in the assay with Fusarium avenaceum, the EC90 was above 200 µg/mL and the MIC was determined as 100 µg/mL (≈ 344 µM).
Take `CN(CC[C@H](N)CC(=O)N[C@H]1C=C[C@H](n2ccc(N)nc2=O)O[C@@H]1C(=O)O)C(=N)N` [BLASTICIDIN_S]: in the assay with Alternaria citri [1], the EC50 stood at 6 µg/mL (≈ 14.2 µM), the EC90 was 53 µg/mL (≈ 125 µM) and the minimal inhibitory concentration (MIC) turned out to be 50 µg/mL (≈ 118 µM). Besides, in the assay on Pyricularia grisea, the EC90 is above 200 µg/mL and the MIC was above 200 µg/mL. Moreover, in the assay with Fusarium avenaceum, the EC50 was 0.4 µg/mL (≈ 0.947 µM), the EC90 is 7 µg/mL (≈ 16.6 µM) and the MIC came out at 25 µg/mL (≈ 59.2 µM).
Consider `CNC(=O)[C@H]1[C@@H](O)[C@@]2(O)c3c(OC)cc(OC)cc3O[C@@]2(c2ccc(OC)cc2)[C@@H]1c1ccccc1` [DESMETHYL ROCAGLAMIDE], for which, in the assay with Pyricularia grisea, the EC50 came to 7 µg/mL (≈ 14.2 µM), the EC90 was 146 µg/mL (≈ 297 µM) and the MIC is 100 µg/mL (≈ 203 µM).
Take `COC(=O)[C@H]1[C@@H](O)[C@@]2(O)c3c(cc4c(c3OC)OCO4)O[C@@]2(c2ccc(OC)cc2)[C@@H]1c1ccccc1` [PANNELLIN]: in the assay on Alternaria citri [1], the EC50 was above 200 µg/mL, the EC90 was above 200 µg/mL and the MIC was above 200 µg/mL. Moreover, in the assay with Pyricularia grisea, the EC50 came out at 0.06 µg/mL (≈ 0.118 µM), the EC90 came out at 171 µg/mL (≈ 338 µM) and the MIC amounted to 50 µg/mL (≈ 98.7 µM). Also, in the assay with Fusarium avenaceum, the EC50 turned out to be 11 µg/mL (≈ 21.7 µM), the EC90 was above 200 µg/mL and the MIC came out at 200 µg/mL (≈ 395 µM).
For `COc1ccc([C@@]23Oc4cc(OC)cc(OC)c4[C@]2(O)[C@H](O)[C@H](C(=O)N(C)C)[C@H]3c2ccccc2)cc1` [ROCAGLAMIDE], the EC50 is above 200 µg/mL with Alternaria citri [1], 0.9 µg/mL (≈ 1.78 µM) with Pyricularia grisea and 8 µg/mL (≈ 15.8 µM) in the assay on Fusarium avenaceum. Moreover, the EC90 in the assay with Alternaria citri [1] is above 200 µg/mL; in the assay with Pyricularia grisea it was 35 µg/mL (≈ 69.2 µM); in the assay with Fusarium avenaceum, 66 µg/mL (≈ 131 µM). Also, the MIC is above 200 µg/mL in the assay with Alternaria citri [1], 25 µg/mL (≈ 49.4 µM) in the assay on Pyricularia grisea and 200 µg/mL (≈ 396 µM) with Fusarium avenaceum.
`COc1ccc([C@@]23Oc4cc(OC)cc(OC)c4[C@]2(O)[C@H](O)C[C@H]3c2ccccc2)cc1` [ROCAGLAOL]: the figures for the EC50 in the assay with Alternaria citri [1], in the assay with Pyricularia grisea and with Fusarium avenaceum were 6 µg/mL (≈ 13.8 µM), 0.01 µg/mL (≈ 0.023 µM) and 0.4 µg/mL (≈ 0.921 µM), respectively. Moreover, the EC90 worked out at 24 µg/mL (≈ 55.2 µM) in the assay on Alternaria citri [1], 0.3 µg/mL (≈ 0.69 µM) with Pyricularia grisea and 9 µg/mL (≈ 20.7 µM) in the assay on Fusarium avenaceum. The MIC with Alternaria citri [1] is 50 µg/mL (≈ 115 µM); in the assay with Pyricularia grisea, 1.6 µg/mL (≈ 3.68 µM); with Fusarium avenaceum it was 25 µg/mL (≈ 57.5 µM). In the assay with Alternaria citri [2], the result was inactive.
For the molecule `COc1ccc([C@]2(C(=O)O)Oc3cc4c(c(OC)c3C(=O)[C@H](C(=O)N3CCCC3NC(=O)C(C)C)[C@H]2c2ccccc2)OCO4)cc1` (some centres not stated) [THAPOXEPINE A], in the assay with Pyricularia grisea, the EC50 is above 200 µg/mL, the EC90 is above 200 µg/mL and the MIC was above 200 µg/mL.
For `COC(=O)[C@@H]1[C@@]2(O)c3c(cc4c(c3OC)OCO4)O[C@]1(c1ccc(OC)cc1)[C@H](c1ccccc1)[C@H]2C(=O)N1CCCC1NC(=O)C(C)C` (some centres not stated) [THAPSAKINACETATE A], in the assay with Pyricularia grisea, the EC50 is above 200 µg/mL, the EC90 is above 200 µg/mL and the MIC was above 200 µg/mL.

Source of the values: ChEMBL document CHEMBL3045131, “Cyclopenta[b]benzofurans from Aglaia species with pronounced antifungal activity against rice blast fungus (Pyricularia grisea)” (J Agric Food Chem, 2000).
